Data on three compounds can be found in article PMC6208485, “Discovery of the first macrolide antibiotic binding protein in Mycobacterium tuberculosis: a new antibiotic resistance drug target” (Protein & Cell, 2018).

The target in this assay is MABP-1 (Rv3197) (Mycobacterium tuberculosis, UniProt O53343).
Chain of MABP-1 (Rv3197) (O53343 entry or part of it): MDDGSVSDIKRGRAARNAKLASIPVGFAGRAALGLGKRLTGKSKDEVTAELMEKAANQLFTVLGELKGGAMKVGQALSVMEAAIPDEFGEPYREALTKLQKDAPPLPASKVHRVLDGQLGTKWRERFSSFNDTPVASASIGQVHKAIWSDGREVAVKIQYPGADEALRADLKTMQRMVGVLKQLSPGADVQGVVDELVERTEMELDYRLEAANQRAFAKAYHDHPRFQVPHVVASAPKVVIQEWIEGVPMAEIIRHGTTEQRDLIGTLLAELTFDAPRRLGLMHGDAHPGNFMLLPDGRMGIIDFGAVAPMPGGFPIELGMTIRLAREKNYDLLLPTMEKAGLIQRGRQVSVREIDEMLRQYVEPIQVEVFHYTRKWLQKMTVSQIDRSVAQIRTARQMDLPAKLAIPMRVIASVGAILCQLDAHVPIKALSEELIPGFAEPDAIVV
Take `Nc1ncnc2c1ncn2[C@@H]1O[C@H](COP(=O)(O)OP(=O)(O)O)[C@@H](O)[C@H]1O` [ADP]: the “crystal structure of the complex” value is “crystal structures of MABP-1 in complex with AMPPNP and with ADP, were determined”.

Regarding `Nc1ncnc2c1ncn2[C@@H]1O[C@H](COP(=O)(O)OP(=O)(O)NP(=O)(O)O)[C@@H](O)[C@H]1O` [AMPPNP], the “crystal structure of the complex” value is “crystal structures of MABP-1 in complex with AMPPNP and with ADP, were determined”.

In the case of `CC[C@H]1OC(=O)[C@H](C)[C@@H](O[C@H]2C[C@@](C)(OC)[C@@H](O)[C@H](C)O2)[C@H](C)[C@@H](O[C@@H]2O[C@H](C)C[C@H](N(C)C)[C@H]2O)[C@](C)(O)C[C@@H](C)C(=O)[C@H](C)[C@@H](O)[C@]1(C)O` [erythromycin], the “crystal structure of the complex” value is given as “The electron density for erythromycin was unequivocal revealing it is located in a shallow pocket”.
